# Positions of bridges follow the written chain, without caps; N, C: chain ends. Non-standard residues stand in square brackets, D forms with d. Residues, ends and D or L forms follow the SMILES beside them. Groups on a side chain read outwards from the residue. *: point of attachment. Lys(CH2CO2H)2 = N[C@@H](CCCCN(CC(=O)O)CC(=O)O)C(=O)O; C17 diacid = O=C(O)CCCCCCCCCCCCCCCC(=O)*; AEEA = NCCOCCOCC(=O)O
# Assays:
# physchem = assay: physchem
# Method: From a stock solution in vehicle, either H2O or 10 mM phosphate, containing 1 mg (as weighed) compound per ml, 8-11 aliquots are withdrawn and pH-adjusted individually with HCl/NaOH, to cover the whole pH range.
# MC1 receptor = MC1 receptor (Homo sapiens, UniProt Q01726); assay: biochemical
# Sequence of MC1 receptor (Q01726 whole entry): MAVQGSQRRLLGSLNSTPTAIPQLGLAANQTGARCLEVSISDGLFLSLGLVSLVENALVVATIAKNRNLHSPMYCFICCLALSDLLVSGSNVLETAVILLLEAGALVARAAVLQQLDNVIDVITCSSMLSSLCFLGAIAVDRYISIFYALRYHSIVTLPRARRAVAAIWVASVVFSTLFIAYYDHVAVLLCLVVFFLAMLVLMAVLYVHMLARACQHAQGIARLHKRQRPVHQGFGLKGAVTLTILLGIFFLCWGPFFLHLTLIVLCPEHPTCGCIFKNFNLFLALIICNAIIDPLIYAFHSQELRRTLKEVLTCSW
# Outline: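 Compounds competed against 125I-NDP-α-MSH (22 pM final) for binding to stably MC1-expressing BHK cell membranes, 30 °C for 90 min in HEPES pH 7.4 buffer with 0.1% HSA or ovalbumin. Bound ligand collected by filtration and counted; binding curves analysed by non-linear regression.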
# human MC4 receptor = human MC4 receptor (Homo sapiens, UniProt P32245); assay: biochemical
# Sequence of human MC4 receptor (P32245 whole entry): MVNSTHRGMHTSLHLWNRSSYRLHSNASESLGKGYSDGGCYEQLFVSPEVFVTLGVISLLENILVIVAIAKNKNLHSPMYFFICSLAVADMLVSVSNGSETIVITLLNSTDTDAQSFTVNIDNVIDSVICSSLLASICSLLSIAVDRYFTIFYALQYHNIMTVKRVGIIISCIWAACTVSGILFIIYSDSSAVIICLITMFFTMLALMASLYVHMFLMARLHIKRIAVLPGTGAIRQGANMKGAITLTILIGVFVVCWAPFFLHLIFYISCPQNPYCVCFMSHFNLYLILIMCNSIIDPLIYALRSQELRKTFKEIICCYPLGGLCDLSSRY
# Method: Assay (V)—Melanocortin Receptor 4 (MC4) Binding Assay
# In Vitro ^125NDP-α-MSH Binding to Recombinant BHK Cells Expressing Human MC4 Receptor (Filtration Assay).
# The assay was performed in 5 ml minisorb vials (Sarstedt No. 55.526) or in 96-well filter-plates (Millipore MADVN 6550), and using BHK cells expressing the human MC4 receptor using BHK cells stably expressing the human MC4 receptor. The membranes were prepared from frozen or fresh cells that were homogenized in 20 mM HEPES pH 7.1, 5 mM MgCl2 and 1 mg/ml bacitracin and centrifuged at 15000 rpm at 4° C., 10 min in a Sorvall RC 5B plus, SS-34 rotor. The supernatant was discarded, and the pellets were re-suspended in buffer, homogenized and centrifuged two more times. The final pellets were resuspended in the buffer mentioned above, and the protein concentration was measured and adjusted with buffer to 14 to 17 mg/ml and the membrane preparation were kept at −80° C. until assay. The assay was run directly on a dilution of this cell membrane suspension, without any further preparation. The BHK cell membranes are kept at −80° C. until assay, and the assay is run directly on a dilution of this cell membrane suspension, without further preparation. The suspension is diluted to give maximally 10% specific binding, i.e. to approx. 50-100 fold dilution. The assay was performed in a total volume of 200 μl: 50 μl of cell suspension, 50 μl of ^125NDP-α-MSH (≈79 pM in final concentration), 50 μl of test compound and 50 μl binding buffer (pH 7) mixed and incubated for 2 h at 25° C. [binding buffer: 25 mM HEPES, pH 7.0, 1 mM CaCl2, 1 mM MgSO4, 1 mM EGTA, 0.02% Bacitracin, 0.005% Tween™ 20 and 0.1% HSA or, alternatively, 0.1% ovalbumin (Sigma; catalogue No. A-5503)]. Test compounds were dissolved in DMSO and diluted in binding buffer. Radiolabelled ligand and membranes were diluted in binding buffer. The incubation was stopped by dilution with 2×100 μl ice-cold 0.9% NaCl. The radioactivity retained on the filters was counted using a Cobra II auto gamma counter.
# The data were analysed by non-linear regression analysis of binding curves, using the Windows™ program GraphPad™ Prism (GraphPad Software, USA).
# human GLP-1 receptor = molecular target: T1, human GLP-1 receptor (Homo sapiens, UniProt P43220); assay: Assay (XI) GLP-1 activity assay, stimulation of cAMP formation; type: biochemical; conditions: membranes of BHK467-12A cells expressing human GLP-1 receptor
# T1 construct: expressed in transfected cells; purified plasma membranes
# T1 sequence (P43220 24-463): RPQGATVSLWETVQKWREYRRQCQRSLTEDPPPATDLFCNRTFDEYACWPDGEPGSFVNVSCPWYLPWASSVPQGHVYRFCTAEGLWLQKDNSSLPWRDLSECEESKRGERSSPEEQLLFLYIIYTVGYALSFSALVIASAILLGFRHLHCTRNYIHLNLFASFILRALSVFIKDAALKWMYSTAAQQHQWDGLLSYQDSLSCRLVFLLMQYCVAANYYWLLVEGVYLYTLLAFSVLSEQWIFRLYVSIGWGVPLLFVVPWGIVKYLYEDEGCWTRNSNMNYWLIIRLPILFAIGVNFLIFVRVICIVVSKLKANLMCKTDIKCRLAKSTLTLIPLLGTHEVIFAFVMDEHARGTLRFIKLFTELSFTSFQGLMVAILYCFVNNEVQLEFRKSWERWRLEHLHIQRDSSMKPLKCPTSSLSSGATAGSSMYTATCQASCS
# From the text: The capture of cAMP is achieved by using a specific antibody conjugated to acceptor beads.
molecule,measurement,setting,value
"CC(=O)N[C@H]1CCCCNC(=O)C[C@@H](C(=O)N2CCC[C@H]2C(=O)N[C@@H](CO)C(=O)N[C@@H](Cc2c[nH]cn2)C(=O)N[C@@H](CCC(=O)O)C(=O)N[C@@H](CCCCN(CC(=O)O)CC(=O)O)C(=O)N[C@@H](CCCCNC(=O)COCCOCCNC(=O)CCCCCCCCCCCCCCCC(=O)O)C(N)=O)NC(=O)[C@H](Cc2c[nH]c3ccccc23)NC(=O)[C@H](CCCNC(=N)N)NC(=O)[C@@H](Cc2ccccc2)NC(=O)[C@H](Cc2c[nH]cn2)NC1=O [Example 49, Ac-c[Lys-His-D-Phe-Arg-Trp-Asp]-Pro-Ser-His-Glu-Lys(biscarboxymethyl)-Lys({2-[2-(16-carboxyhexadecanoylamino)ethoxy]ethoxy}acetyl)-NH2] (Ac-KH[dF]RWDPSHE[Lys(CH2CO2H)2]K([AEEA-C17 diacid])-NH2; lactam 1-6)",solubility,"physchem; pH 6.5, Solubility Conc.",248 µM
same,solubility,"physchem; pH 6.6, Solubility Conc.",423 µM
same,solubility,"physchem; pH 6.8, Solubility Conc.",427 µM
same,solubility,"physchem; pH 7, Solubility Conc.",462 µM
same,solubility,"physchem; pH 7.3, Solubility Conc.",460 µM
same,solubility,"physchem; pH 7.7, Solubility Conc.",439 µM
same,solubility,"physchem; pH 7.8, Solubility Conc.",456 µM
same,solubility,"physchem; pH 8, Solubility Conc.",410 µM
same,solubility,"physchem; pH 8.2, Solubility Conc.",446 µM
same,Ki,MC1 receptor,> 10000 nM
same,Ki,human MC4 receptor,25 nM
exendin-4(7-45) [SEQ ID NO: 4],EC50 relative to that of compound G1,human GLP-1 receptor,about 0.3 times

# — patent publication US20130012432A1, “Peptides for Treatment of Obesity” (Novo Nordisk A/S, priority 2010, published 2013)
